Experimental data: patent US20230081986A1, “METHOD AND REAGENTS TO IMPROVE NONANIMAL OCULAR TOXICITY TESTS” (Lebrun Labs LLC, priority 2021, published 2023)

Assays:
[1] = tested on: food-source rabbit eyes (cornea); conditions: 100 µL, 1 minute exposure, tear solution wash, 24 hours organ culture
Method: (§1) Because of these modifications, we have updated our prediction model to include the metabolic test to identify reversible irritants or toxicity as shown in FIG. 3. For GHS (A) and EPA (B) classification systems, if the direct procedure (100 µL, washed after 1 minute exposure with 20 mL tear solution using a blunt end syringe 2-5 cm from cornea to create a laminar flow across the tissue) is negative, the metabolic result is used to confirm the negative result or identify reversible irritants or toxicity (GHS 2 or EPA II) if increased DoI is detected. […] For the GHS classification system, the NC is defined by no stromal DoI and a negative metabolic test.
Only food source eyes are suitable for this procedure.
3) Put the lid onto the 12 well plate(s) and place into the incubator (37° C., 5% CO2) for one hour.
3) Place an eye on the holder and carefully place a new cloning ring in the middle of the cornea without scratching it.
9) Start the timer for one minute.
10) After the one minute is over, remove the dosing ring and put in the proper container, and pick up the tissue without touching the cornea and hold it over the container for liquid waste.

[2] = tested on: food-source rabbit eyes (cornea); conditions: 6 minutes, 100 µL tear solution then 100 µL test material; run only where Direct was 0%
Method: All of the steps of the META test are the same as the direct test except for the dosing step. For the META, 100 µL of tear solution (saline with ascorbic acid, protein) is first added to the dosing ring, followed by the addition of 100 µL of the material to be tested.
as §1
NOTE: The steps of the main procedure are the same as described above. The only deviations are described below and apply to the dosing of the corneas and interpretation of results. • 1) After the pre-incubation, remove the 12 well plate(s) from the incubator and place in the hood. • 2) Using a skinny sharpie, label the wells on the lid (water or specific chemical). • 3) Place an eye on the holder and carefully place a new cloning ring in the middle of the cornea without scratching it. • 4) Remove the needle from the syringe by twisting it off. Fill the syringe with 40 mL of 1x PBS by aliquoting it from the beaker. • 5) Put the needle back on the syringe by twisting on and remove the cap protecting the needle. Place the syringe flat on a sterile piece of foil. • 6) Obtain the timer. Add 100 uL of the T8 tear solution in the center of the dosing ring. Ensure the entire surface is covered. • 7) Retrieve 100 uL of the sample and aspirate in the center of the dosing ring, ensuring the entire surface is exposed.

[3] = tested on: food-source rabbit eyes (cornea); conditions: for Prediction EPA: EPA prediction model from direct and metabolic results; for Prediction GHS: GHS prediction model from direct and metabolic results
Text: FIG. 3 depicts the EPA and GHS prediction models. […] Meta. = Metabolic; GHS = Globally Harmonized System of Classification and Labeling of chemicals; EPA = Environmental Protection Agency; NC = Not Classified; * = Apical death of epithelium of at least 10%; must be a clear line of nuclei.
as §1

[4] = tested on: rabbit eye (cornea, iris, and conjunctiva); conditions: Lebrun et al., cited from earlier work; for in vivo EPA: EPA classification, 2020 / NICEATM, 2006; for in vivo GHS: GHS classification, 2020
rabbit cornea = assay: Cornea exposure for different times, with and without the esterase inhibitor ebelactone; conditions: for state of the cornea: 6-minute exposure
Method: FIG. 2 depicts the effects of ebelactone on rabbit cornea.
To test this hypothesis, we incubated corneas with 100 µL of the test chemical for different exposure times and observed that methyl cyanoacetate produced a toxic effect on the eye after 6 minutes of exposure. To confirm that this increased toxicity was metabolically related, eyes were treated with ebelactone, an inhibitor of nonspecific esterases. […] Based on these findings, we updated the IVD EIT method to include the following: Each chemical is first tested using a direct 1-minute application to the eye; if negative, the chemical is then retested for 6 minutes using the metabolic test (META). All of the steps of the META test are the same as the direct test except for the dosing step. For the META, 100 µL of tear solution (saline with ascorbic acid, protein) is first added to the dosing ring, followed by the addition of 100 µL of the material to be tested.

[5] = literature review [11]; cited from earlier work

Compound	Direct (depth of injury, stromal) [1] [%]	Meta. (Metabolic) [2]	Prediction EPA [3]	Prediction GHS [3]	in vivo EPA [4]	in vivo GHS [4]	state of the cornea (rabbit cornea; in the presence of ebelactone)	state of the cornea (rabbit cornea; without ebelactone)	effect on the eye (rabbit cornea; 100 µL, after 6 minutes of exposure)	classification by most nonanimal tests [5]
O=C(Cl)c1c(Cl)cccc1Cl [2,6-Dichlorobenzoyl chloride]	0.0	Pos.	II (category II includes damage greater than 15% but less than 25% (or is positive for cell death by the metabolic test))	2 (Category 2 is identified by any stromal DoI up to 18% or a positive metabolic test)	II (II (damage is reversed within 21 days of exposure))	2A (2 A, irritation effects are reversed within 21 days)	–	–	–	–
CC(C)=O [Acetone]	0.0	Pos.	II (category II includes damage greater than 15% but less than 25% (or is positive for cell death by the metabolic test))	2 (Category 2 is identified by any stromal DoI up to 18% or a positive metabolic test)	II (II (damage is reversed within 21 days of exposure))	2A (2 A, irritation effects are reversed within 21 days)	–	–	–	–
COC(=O)CC#N [methyl cyanoacetate]	–	–	–	–	–	–	somewhat swollen but there are mostly viable cells	swollen with no viable cells	toxic effect	misclassified as FN
